# Assay results as given in US7767789B2, “Truncated proteins as cancer markers” (University Hopitals of Cleveland, priority 2005, dated 2010).
# Read-outs that look alike come from different tables or passages of the source. Residues, ends and D or L forms follow the SMILES beside them. *: point of attachment. Cbz = O=C(OCc1ccccc1)*; CH2F = FC*
# How the values were obtained:
# [1] = tested on: α-adrenoceptors (CaSki cells); test: Binding studies, α-adrenoceptor radioligands; design: species or system human; conditions: not shown
# Experimental: Binding studies of the adrenoceptors and the EGF receptor used a similar method. Two hundred fifty microliters of binding medium (serum-free DMEM, 0.1% BSA, 10 mM HEPES) containing […] of the radioligand were added to the apical container of the filter, and 500/μl of the same solution to the basolateral container; parallel tubes contained an additional 200-fold excess radioinert ligand. The cells were then incubated at 4° C. for 3 h; at the completion of incubations cells were washed three times with ice-cold HBSS containing 0.1% BSA. Cells were solubilized in 0.2 N NaOH, and the bound ligand was separated on glass fiber filters (Whatman, GF/C, Tonawanda, N.Y.) by vacuum filtration. The associated radioligand was counted either in a β-scintillation counter (for [^3H] associated ligands) or in a γ-counter (for 125I] associated ligands). […] (all at 1 μCi/ml; specific activity, about 90 Ci/mmo]; Amersham), and [^125I]EGF (5 μCi/ml; specific activity, about 100 Ci/mmol; Biomedical Technology, Stoughton, Mass.). […] Human recombinant EGF was from R&D Systems (Minneapolis, Minn.). Specific receptor binding was expressed per milligram DNA, and data were analyzed by Scatchard plot.
# [2] = tested on: hECEs, ECE16-1, HT3, CaSki, SiHa and Hela cells; conditions: cited from earlier work
# P2X7 receptor = conditions: cited from earlier work
# Bcl-2 = conditions: cited from earlier work
# caspase-9 = conditions: hECEs and CaSki cells; cited from earlier work
# [3] = target: T1, full-length human P2X7 receptor (HEK-293-hP2X7-R cells) (Homo sapiens, UniProt Q99572); test: Ethidium bromide influx in HEK-293-hP2X7-R and wild-type HEK293 cells on filters; type: cell-based
# T1 construct: For transfections, the full length human P2X7 receptor; expressed in transfected cells; host or cells: HEK-293, pcDNA-6 vector
# T1 sequence (Q99572 1-595): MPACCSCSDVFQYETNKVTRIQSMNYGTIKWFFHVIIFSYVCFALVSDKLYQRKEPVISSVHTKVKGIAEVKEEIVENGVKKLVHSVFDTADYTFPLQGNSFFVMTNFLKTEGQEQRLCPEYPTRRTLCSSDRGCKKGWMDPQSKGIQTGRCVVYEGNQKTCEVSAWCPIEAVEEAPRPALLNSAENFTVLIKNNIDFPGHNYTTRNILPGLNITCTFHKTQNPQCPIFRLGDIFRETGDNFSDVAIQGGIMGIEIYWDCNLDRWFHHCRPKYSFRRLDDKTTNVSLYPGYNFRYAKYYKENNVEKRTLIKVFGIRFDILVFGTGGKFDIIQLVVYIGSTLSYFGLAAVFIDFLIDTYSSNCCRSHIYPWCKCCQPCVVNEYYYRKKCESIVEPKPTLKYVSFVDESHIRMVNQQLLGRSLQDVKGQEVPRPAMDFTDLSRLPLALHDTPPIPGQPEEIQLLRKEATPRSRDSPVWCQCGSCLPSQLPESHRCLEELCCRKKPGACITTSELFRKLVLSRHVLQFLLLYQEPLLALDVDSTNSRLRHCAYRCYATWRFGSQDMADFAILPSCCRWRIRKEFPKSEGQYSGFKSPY
# [4] = target: T1, full-length human P2X7 receptor (HEK-293-hP2X7-R cells); test: Cytosolic calcium in HEK-293-hP2X7-R and wild-type HEK293 cells on filters; type: cell-based
# CaSki cells [5] = test: DNA solubilization assay (apoptosis); type: cell-based, human; conditions: for effect on zinterol (1 μM)-induced inhibition of BzATP-induced apoptosis: cotreatment 24 h: 10 μM propranolol, 100 nM ICI 118,551, 30 μM H-89 dihydrochloride; for BzATP-induced DNA solubilization after pretreatment: 100 μM BzATP 9 h, 24 h 2 nM epinephrine ± 0.2 nm EGF, zVAD-FMK 30 min before, 50 /ZM; for effect on BzATP-induced apoptosis (DNA solubilization): pretreatment: EGF 0.2 nM, zinterol/terbutaline 1 μM 24 h, forskolin 10 μM 14 h with IBMX, isoproterenol 10 μM, phenylephrine 100 μM
# Experimental: Twenty-four hours before the end of the experiment, cells were labeled with [^3H]thymidine (specific activity, 93 Ci/mmol; 5 μCi/1×10^6 cells) for 16 h. The medium was removed, and cells were washed three times with fresh medium lacking [^3H]thymidine and were incubated in the same medium for an additional 6 h. At the end of incubation, the supernatant was stored, and cells were lysed in 0.5 ml lysis buffer (10 mM Tris-HCl, pH 7.5; plus 1 mM EDTA-0.2% Triton X-100) for 1 h at 4° C. The intact chromatin was separated from the fragmented DNA by 5 min centrifugation at 4° C. in Eppendorf microcentrifuge at 12,000×g. The supernatant (lysate) was stored, while the pellet was resuspended in 0.5 ml of 1% sodium dodecyl sulfate (SDS). The radioactivity contained in the supernatants, lysates; and pellets was counted in a scintillation counter, and DNA fragmentation was calculated as: [% Solubilized DNA]=([cpm supernatant+cpm lysates]/[cpm supernatant+cpm lysate+cpm pellet])×100.
# [6] = tested on: β-arrestin-2-GFP in HEK-293-hP2X7-R cells; test: Real-time confocal microscopy of β-arrestin-2-GFP, HEK-293 cells; type: cell-based, human
# Experimental: (§1) CaSki cells transfected with the β-arrestin-2-GFP, or HEK-293 cells co-transfected with the full-length human P2X7-receptor and the β-arrestin-2-GFP were plated on 35-mm glass-bottom culture dishes (MatTek Corporation, Ashland, MA). Dishes contained a centered, 1 cm well formed from a glass coverslip sealed hole in the plastic. Two hours before experiments the medium was replaced with serum-free medium supplemented with 10 mM HEPES. The distribution of the β-arrestin-2-GFP was visualized before and after treatment with the agonist by real-time confocal microscopy. Imaging of the β-arrestin-2-GFP fluorescence in the same cells was performed on a Zeiss laser-scanning confocal microscope (LSM-510) using a heated (37° C.) microscope stage. Barak et al., “A beta-arrestin/green fluorescent protein biosensor for detecting G protein-coupled receptor activation” J Biol Chem 272:27497-27500 (1997).
# (§2) Images were collected sequentially before and after treatment with agonist for 0-30 min at 37° C. using single line excitation (488 nm).
# [7] = target: T2, β2-adrenoceptor (CaSki cells) (Homo sapiens, UniProt P07550); test: Binding studies, β-adrenoceptor radioligand
# T2 construct: endogenous in cells; host or cells: CaSki cells on filters (intact cells, 4 °C)
# T2 sequence (P07550 whole entry): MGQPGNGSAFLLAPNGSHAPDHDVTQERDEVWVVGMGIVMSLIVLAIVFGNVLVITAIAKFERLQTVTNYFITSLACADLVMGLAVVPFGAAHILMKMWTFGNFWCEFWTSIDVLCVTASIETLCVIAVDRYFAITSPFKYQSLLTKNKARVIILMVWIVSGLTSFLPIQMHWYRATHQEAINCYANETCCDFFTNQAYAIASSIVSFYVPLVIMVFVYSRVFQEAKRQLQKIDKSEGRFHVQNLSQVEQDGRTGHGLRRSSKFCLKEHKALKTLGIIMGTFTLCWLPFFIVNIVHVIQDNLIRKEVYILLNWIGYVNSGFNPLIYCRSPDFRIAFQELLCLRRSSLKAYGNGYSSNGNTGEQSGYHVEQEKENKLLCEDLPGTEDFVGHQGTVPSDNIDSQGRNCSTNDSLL
# CaSki cells [8] = test: Number of CaSki cells in culture; type: cell-based, human; conditions: serum-free; 0.2 nM EGF, 2 nM epinephrine, or both, 24 h
# Experimental: Near-confluent cultures of CaSki cells on filters were shifted for 14 hours to serum-free medium supplemented with 1% BSA and were treated in the same medium with 0.2 nM EGF, 2 nM epinephrine, or both for an additional 24 h. At the completion of treatments, cells were harvested off the filters and counted.
# [9] = tested on: β-arrestin-2-GFP in CaSki cells; test: Real-time confocal microscopy of β-arrestin-2-GFP, CaSki cells; type: cell-based, human; conditions: CaSki transfected with β-arrestin-2-GFP; 250 μM ATP
# Experimental: as §1, §2
# [10] = target: P2X7 receptor (HEK-293-hP2X7-R cells) (Homo sapiens, UniProt Q99572)
# [11] = HEK-293-hP2X7-R with β-arrestin-2-GFP, 10 μM angiotensin, 10 μM UTP
compound,measurement,setting,value
COc1cc2nc(N3CCN(C(=O)c4ccco4)CC3)nc(N)c2cc1OC [[^3H]prazosin],specific binding,[1],no specific binding
17β-estradiol [estrogen],P2X7 receptor-induced apoptosis,[2]; SiHa and Hela cells,no effect
same,earliest effects after adding the hormone,[2],1 to 3 h
same,baseline and P2X7 receptor-induced apoptosis,"[2]; hECEs, ECE16-1, HT3, and CaSki cells",blocked baseline and P2X7 receptor-induced apoptosis
same,BzATP-induced calcium influx,P2X7 receptor; cancer CaSki cells,only a mild effect
same,BzATP-induced calcium influx,P2X7 receptor; normal hECEs,did block BzATP-induced calcium influx
same,Bcl-2 regulation,Bcl-2; CaSki cells,upregulated Bcl-2
same,Bcl-2 regulation,Bcl-2; SiHa and Hela cells,did not find estrogen regulation of Bcl-2
same,P2X7 receptor-induced activation of caspase-9,caspase-9,blocked P2X7 receptor-induced activation of caspase-9
"CN([C@@H](Cc1ccc(OS(=O)(=O)c2cccc3cnccc23)cc1)C(=O)N1CCN(c2ccccc2)CC1)S(=O)(=O)c1cccc2cnccc12 [KN-62, 1-[N,O-bis(5-isoquinolinesulfonyl)-N-methyl-L-tyrosyl]-4-phenylpiperazine]",effect on ATP/BzATP-induced influx of ethidium bromide,[3],inhibited
same,effect on ATP/BzATP-induced sustained calcium increase,[4],inhibited
CC(C)NCC(O)COc1cccc2ccccc12 (stereo not drawn) [propranolol],effect on zinterol (1 μM)-induced inhibition of BzATP-induced apoptosis,CaSki cells [5],blocked
angiotensin,effect on the GFP fluorescence,[6]; [11],"Neither angiotensin, nor UTP, had a significant effect"
CC/C(=C(\c1ccccc1)c1ccc(OCCN(C)C)cc1)c1ccccc1 [tamoxifen],inhibition of the estrogen antiapoptotic action,[2],lack of inhibition
"COC(=O)C[C@H](NC(=O)[C@H](C)NC(=O)[C@@H](NC(=O)OCc1ccccc1)C(C)C)C(=O)CF [zVAD-FMK, Benzyloxy-vallne-alardne-aspartate-O-methylfluoromethylketone] (Cbz-Val-Ala-Asp(OMe)-CH2F)",BzATP-induced DNA solubilization after pretreatment,CaSki cells [5],about 1.4%
CC(C)(C)NCC(O)COc1cccc2[nH]c(C#N)c([125I])c12 (stereo not drawn) [[^125I]cyanopindolol],binding activity,[7],about 15 fmol/mg DNA
same,binding activity as receptors per cell,[7],"~10,000 receptors/cell"
CC(=O)[C@H]1CC[C@H]2[C@@H]3CCC4=CC(=O)CC[C@]4(C)[C@H]3CC[C@]12C [progesterone],inhibition of the estrogen antiapoptotic action,[2],lack of inhibition
CNC[C@H](O)c1ccc(O)c(O)c1 [epinephrine],number of cells in culture,CaSki cells [8],increased the number of cells in culture
same,BzATP-induced DNA solubilization after pretreatment,CaSki cells [5],4.6%
Cl.Cl.O=S(=O)(NCCNC/C=C/c1ccc(Br)cc1)c1cccc2cnccc12 [H-89 dihydrochloride],effect on zinterol (1 μM)-induced inhibition of BzATP-induced apoptosis,CaSki cells [5],blocked
"Nc1ncnc2c1ncn2[C@@H]1O[C@H](COP(=O)(O)OP(=O)(O)OP(=O)(O)O)[C@@H](O)[C@H]1O [ATP, adenosine triphosphate]",time to re-distribution of GFP fluorescence towards cell periphery,[9],≤ 3 min
same,Cai transients,[4],did not induce Cai transients
same,sustained cytosolic calcium increase,[4],induced sustained Ci increase
same,time to redistribution of the GFP fluorescence towards cell periphery,"[6]; HEK-293-hP2X7-R co-transfected with β-arrestin-2-GFP, 250 μM ATP",≤ 5 min
same,duration of redistribution effect,"[6]; HEK-293-hP2X7-R with β-arrestin-2-GFP, 250 μM ATP",at least 10 minutes
same,effect on the GFP fluorescence,"[6]; HEK-293 cells transfected with only β-arrestin-2-GFP, 250 μM ATP",no significant effect
same,65 KDa and 18 KDa forms in the cytosol,[10]; HEK-293-hP2X7-R cells,biphasic change
same,18 KDa form in the membrane-enriched fraction,"[10]; HEK-293-hP2X7-R, began 10 min after treatment",gradual increase
[^3H]tamsulosin,specific binding,[1],no specific binding
"Nc1ncnc2c1ncn2[C@@H](C=O)O[C@@H](C=O)COP(=O)(O)OP(=O)(O)OP(=O)(O)O [oATP, oxidized ATP]",effect on ATP/BzATP-induced influx of ethidium bromide,[3],inhibited
same,effect on ATP/BzATP-induced sustained calcium increase,[4],inhibited
TNFα,DNA solubilization,CaSki cells [5]; 100 μM BzATP for 9 h or 10 μM TNFα for 14 h,significantly increased DNA solubilization
CC(C)(C)NCC(O)c1cc(O)cc(O)c1 (stereo not drawn) [terbutaline],effect on BzATP-induced apoptosis (DNA solubilization),CaSki cells [5],inhibited
C[C@]12CC[C@@H]3c4ccc(O)cc4C[C@@H](CCCCCCCCC[S+]([O-])CCCC(F)(F)C(F)(F)F)[C@H]3[C@@H]1CC[C@@H]2O (stereo partly drawn) [ICI-182780],inhibition of the estrogen antiapoptotic action,[2],lack of inhibition
O=c1ccn([C@@H]2O[C@H](COP(=O)(O)OP(=O)(O)OP(=O)(O)O)[C@@H](O)[C@H]2O)c(=O)[nH]1 [UTP],effect on cytosolic calcium levels,[4]; not shown,nor did the nucleotide UTP have any appreciable effect
same,effect on the GFP fluorescence,[6]; [11],"Neither angiotensin, nor UTP, had a significant effect"
CC(C)(Cc1ccccc1)NCC(O)c1ccc(O)c(NS(C)(=O)=O)c1 (stereo not drawn) [zinterol],effect on TNFα-induced increase in DNA solubilization,CaSki cells [5]; pretreatment 24 h: 1 μM zinterol or 0.2 nM EGF,no effect
same,effect on BzATP-induced apoptosis (DNA solubilization),CaSki cells [5],inhibited
CNC[C@H](O)c1cccc(O)c1 [phenylephrine],effect on BzATP-induced apoptosis (DNA solubilization),CaSki cells [5],no effect
"Cc1ccc(OCC(O)C(C)NC(C)C)c2c1CCC2 (stereo not drawn) [ICI 118,551]",effect on zinterol (1 μM)-induced inhibition of BzATP-induced apoptosis,CaSki cells [5],blocked
CC(C)NCC(O)c1ccc(O)c(O)c1 (stereo not drawn) [isoproterenol],effect on BzATP-induced apoptosis (DNA solubilization),CaSki cells [5],no effect
